Test results reported in paper PMC12621175, “Scaffold Fusion and SAR Transfer with a Chemical Language Model Generates Novel Liver X Receptor Modulators” (Journal of Medicinal Chemistry, 2025).
Entries after “also recorded” stand apart in the source; their conditions may differ.

Key:
[1] = tested on: HepG2 cells; test: resazurin-based proliferation assay, HepG2; assay type: cell-based; conditions: 10 μM
Experimental: (§1) HepG2 or HEK293T cells were seeded in 96-well plates (4 × 10^4 cells per well). […] After 4, 14, and 24 h, the medium was aspirated, and the cells were incubated with 100 μM resazurin solution in Opti-MEM (prepared from a 0.15 mg/mL resazurin stock in DPBS) for 60 min. The metabolic activity was assessed by conversion of resazurin to resorufin, which was quantified by measuring absorbance at 570 nm and a reference wavelength of 600 nm. The cell count was calculated from a calibration curve with 0–10^5 cells per well in steps of 2 × 10^4.

[2] = biological target: T1, LXRβ (Homo sapiens, UniProt P55055); test: Gal4-LXRβ hybrid reporter gene assay; assay type: cell-based; conditions: classification agonist; read-out: LXRb pEC50/pIC50 (converted)
T1 construct: coding for the hinge region, and LBD of the canonical isoform of the respective nuclear receptor; expressed in transfected cells; host or cells: HEK293T
T1 sequence (P55055 222-460 limits assumed): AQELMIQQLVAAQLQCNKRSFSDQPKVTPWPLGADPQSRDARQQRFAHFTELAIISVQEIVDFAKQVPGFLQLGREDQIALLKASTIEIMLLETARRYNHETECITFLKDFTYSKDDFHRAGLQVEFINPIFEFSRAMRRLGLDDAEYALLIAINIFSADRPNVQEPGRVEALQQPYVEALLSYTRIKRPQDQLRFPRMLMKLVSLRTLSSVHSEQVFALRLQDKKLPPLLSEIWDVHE
Experimental: (§2) The LXR-responsive reporter ABCA1-pGL3 was used for the full-length reporter gene assay.
(§3) The day before transfection, HEK293T cells were seeded in 96-well plates (4 × 10^4 cells/well). Before transfection, the medium was changed to Opti-MEM without any supplements. Transient transfection was carried out using Lipofectamine LTX reagent (Invitrogen) according to the manufacturer’s protocol with (a) pFR-Luc (Stratagene), pRL-SV40 (Promega), and the corresponding Gal4-fusion nuclear receptor plasmid or (b) the LXR-responsive reporter ABCA1-pGL3 and pRL-SV40 (Promega). […] Each concentration was tested in duplicate, and each experiment was repeated in at least three biologically independent repeats. […] Luminescence was measured with a Spark 10 M luminometer (Tecan Deutschland GmbH). Normalization of transfection efficiency and cell growth was done by division of firefly luciferase data by renilla luciferase data multiplied by 1000, resulting in relative light units (RLU). Fold activation was obtained by dividing the mean RLU of the tested compound at a respective concentration by the mean RLU of the untreated 0.1% DMSO control. […] Separate control experiments to exclude nonspecific reporter gene activation or VP16-mediated effects were performed following the same procedure in the absence of a nuclear receptor expression plasmid (pFR-Luc, pRL-SV40, and pECE-SV40-Gal4-VP16 only).

[3] = tested on: LXR/retinoid X receptor (RXR) heterodimer; test: full-length LXR assay (LXR-responsive ABCA1 reporter, endogenous LXR) in HEK293T and HepG2 cells; assay type: cell-based; conditions: 3 μM, vs 0.1% DMSO
Excerpt: Intrigued by the initial data on LXR modulation, we further investigated the mode-of-action of designs 1-3. As the Gal4 hybrid reporter gene assay is artificial and overexpresses LXR, we next examined LXR modulation by 1-3 in a full-length LXR assay (Figure a) based on the endogenous expression of the LXR/retinoid X receptor (RXR) heterodimer (Figure S2). Upon activation, LXR binds to response elements within the ATP-binding cassette transporter A1 (ABCA1, an LXR target gene) promoter of the reporter. […] The designs were next checked for antiproliferative effects that may compromise further in vitro characterization. […] Therefore, and due to the weak efficacy of 2, we focused further biological characterization on 1 and 3.
For the hybrid reporter gene assays, the previously reported Gal4-fusion receptor plasmids pFA-CMV-hRORα-LBD, pFA-CMV-hRORβ-LBD, pFA-CMV-hRORγ-LBD, pFA-CMV-hLXRα-LBD, pFA-CMV-hLXRβ-LBD, pFA-CMV-hFXR-LBD, pFA-CMV-hPXR-LBD, and pFA-CMV-hRXRα-LBD, coding for the hinge region, and LBD of the canonical isoform of the respective nuclear receptor were used. pFR-Luc (Stratagene) was used as the reporter plasmid, and pRL-SV40 (Promega) was used in all assays for the normalization of transfection efficiency and cell growth. pECE-SV40-Gal4-VP16 was a gift from Lea Sistonen (Addgene plasmid #71728). The LXR-responsive reporter ABCA1-pGL3 was used for the full-length reporter gene assay.
The day before transfection, HEK293T cells were seeded in 96-well plates (4 × 10^4 cells/well). Before transfection, the medium was changed to Opti-MEM without any supplements. […] Luminescence was measured with a Spark 10 M luminometer (Tecan Deutschland GmbH). […] EC50/IC50 values and the standard errors thereof were calculated with the mean fold activation values by OriginPro, Version 2025 (OriginLab Corporation, Northampton, MA, USA), fitting a dose–response curve with a variable Hill slope (Levenberg–Marquardt algorithm). […]

[4] = tested on: HEK293T cells; test: resazurin-based proliferation assay, HEK293T; assay type: cell-based; conditions: 10 μM
Experimental: as §1

[5] = biological target: T2, LXRα (Homo sapiens, UniProt Q13133); test: Gal4-LXRα hybrid reporter gene assay; assay type: cell-based
T2 construct: coding for the hinge region, and LBD of the canonical isoform of the respective nuclear receptor; expressed in transfected cells; host or cells: HEK293T
T2 sequence (Q13133 209-447 limits assumed): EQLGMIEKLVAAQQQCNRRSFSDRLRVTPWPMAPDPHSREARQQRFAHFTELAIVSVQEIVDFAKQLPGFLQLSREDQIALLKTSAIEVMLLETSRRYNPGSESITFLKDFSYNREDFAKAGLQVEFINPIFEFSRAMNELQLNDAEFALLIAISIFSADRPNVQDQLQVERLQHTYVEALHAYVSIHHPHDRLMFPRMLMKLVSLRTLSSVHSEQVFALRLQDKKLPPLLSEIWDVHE
Experimental: as §2, §3

[6] = tested on: ABCA1; test: qPCR of LXR-regulated mRNA expression in HepG2: ABCA1; assay type: cell-based, human; conditions: 1 μM, HepG2, 24 h
[7] = tested on: SREBP1c; test: qPCR of LXR-regulated mRNA expression in HepG2: SREBP1c; assay type: cell-based, human; conditions: 1 μM, HepG2, 24 h
[8] = tested on: APOE; test: qPCR of LXR-regulated mRNA expression in HepG2: APOE; assay type: cell-based, human; conditions: 1 μM, HepG2, 24 h

CS(=O)(=O)c1cccc(N2CCN(c3ccc(Cl)c(C(F)(F)F)c3)CC2)c1 [Compound 2, 1-(4-Chloro-3-[trifluoromethyl]phenyl)-4-(3-[methylsulfonyl]phenyl)piperazine]
antiproliferative effect [1]: did not inhibit the proliferation
EC50 [2]: > 3.16 µM
LXR modulation in LXR-responsive ABCA1 reporter gene assay [3]: partial LXR agonists; also recorded: partial LXR agonism
antiproliferative effect [4]: did not inhibit the proliferation; also recorded: slightly reduced growth rate
classification ([5]; applies to LXRa and LXRb): agonist
LXR modulation in Gal4 hybrid reporter gene assays (mode of action) ([5]; both LXR subtypes (LXRα and LXRβ)): partial agonists
EC50 ([5]; classification agonist, read-out: LXRa pEC50/pIC50 (converted)): > 3.16 µM

O=S(=O)(c1ccccc1)N(CC(F)(F)F)c1ccc(C(O)(C(F)(F)F)C(F)(F)F)cc1 [Compound T0901317, reference compound]
ABCA1 mRNA expression [6]: induced mRNA expression
ABCA1 mRNA expression ([6]; listed as T090): induced
SREBP1c mRNA expression [7]: induced mRNA expression
SREBP1c mRNA expression ([7]; listed as T090): induced
APOE mRNA expression [8]: induced mRNA expression
APOE mRNA expression ([8]; listed as T090): induced
